# US6197774A, “Pyrimidine derivative” (Otsuka Pharmaceutical Co., Ltd., priority 1997, dated 2001)
# Tests used:
# [1] = test system: formation of NO in cell strain RAW 264.7; experiment: Activity for inhibiting the formation of NO (LPS-stimulated RAW 264.7 cells, Griess reagent); assay type: cell-based; conditions: Mus musculus, RAW264.7, 1 × 10^-6 M, LPS 100 ng/ml, 24 hours, read-out: Ratio of formed amount of NO (reference culture medium = 100)
# Procedure: [Evaluation test of activity for inhibiting the formation of NO]
# Pharmacological tests of pyrimidine derivatives obtained in Examples 1, 12, 14, 19, 22, 24, 29 and 42 used as test compounds were conducted as follows.
# Preparation of culture media and method of cell culture were conducted in accordance with those described in J. Biol. Chem., Vol. 269, No. 1, pp. 711-715, (1994), and determination of formed amount of NO was conducted in accordance with the method described in Anal. Biochem., Vol. 126, pp. 131-138, (1982), respectively.
# (1) Cell Culture and Inducible Synthesis of NO in the Cells by Stimulation with Lipopolysaccharide (LPS)
# (§1) Cell strain RAW 264.7 (ATCC) derived from the macrophage of mouse was placed on each one of the wells on a microplate having 24-wells so as to put the cells in an amount of 1×10^5 cells/U (well). The cells were incubated for 24 hours in a phenol red free-RPMI-1640 culture medium (mfd. by GIBCO) to which 10% of fetal bovine serum, 100 U/ml of penicillin (mfd. by Dainippon Pharmaceutical Co., Ltd.) and 100 μg/ml of streptomycin (mfd. by Dainippon Pharmaceutical Co., Ltd.) were added.
# Next, the reference culture medium was prepared by adding 2 mM of L-arginine (mfd. by Wako Pure Chemical Industries, Ltd.), 10 μM/ml of tetrahydrobiopterin (mfd. by ALEXIS) and 100 ng/ml of lipopolysaccharide (LPS)(mfd. by Sigma Chemical Co.) to a phenol red free-RPMI-1640 culture medium. While, the reference culture medium without containing LPS was used as the blanc culture medium.
# On the other hand, the test culture medium, containing the test compound was prepared by adding 0.2% of the test compounds dissolved in dimethyl sulfoxide (DMSO) to the reference culture medium to adjust the final concentration of the test compound to 1×10^-6 M.
# Each one of the blank culture medium, reference culture medium and test culture medium containing the test compound was added, respectively to the well on the micro-plate where the above-mentioned cell strain RAW 264.7 was placed, and was incubated for 24 hours.
# (2) Measurement of the Amount of Formed NO
# Quantitative measurement of NO cannot be made directly, due to its unstability. Therefore, the amount of NO is measured indirectly, thus by forming nitrous acid ion (hereunder referred to as NO2^-) which is stable product derived from NO by use of Griess reagent [consisting of 1% of sulfanylamide and 0.1% of sulfuric acid solution containing 0.1% N-(1-naphthyl)ethylenediamine dihydrochloride], and measure the amount of NO2^-.
# Into the supernatant of each one of the culture media was admixed with the same amount of Griess reagent respectively, and subjected to reaction at room temperature for 10 minutes, then the optical absorbance at 540 nm of the thus reacted culture medium was measured. While, the optical absorbance of sodium nitrite solution diluted with the culture medium was referred to as the standard value, and the amount of NO2^- formed in each one of these incubated culture media was measured. The amounts of NO2^- formed in the reference culture medium and the test culture medium were corrected by using the value of formed amount of NO2^- in the blanc culture medium.
# On the basis of that the ratio of amounts of NO2^- formed in the reference culture medium and that of formed in the test culture medium is corresponding to the ratio of amount of NO formed in the reference culture medium and that of formed in the test culture medium. Thus the amount of NO2^- formed in the reference culture medium is referred to as the value of 100, and the value of amount of NO2^- formed in the test culture medium is referred to as amount of NO formed in the test culture medium.
# [2] = test system: formation of IL-8 in cell strain A 549; experiment: Activity for inhibiting the formation of IL-8 in vitro (A 549 cells, ELISA); assay type: cell-based; conditions: Homo sapiens, A549, control 100.0, 24 hours, read-out: Ratio of formed amount of IL-8
# Procedure: [Evaluation test of activity for inhibiting the formation of IL-8 in vitro]
# Pyrimidine derivative obtained in Example 1 was used as test comppound.
# as §1, with “A 549” for “RAW 264.7”, “human alveolar epithelium cells” for “the macrophage of mouse”, “3×10^5” for “1×10^5”, “F-12 Nutrient Mixture” for “a phenol red free-RPMI-1640”, “equine” for “fetal bovine”
# Next, the equine serum was removed from the culture medium, and the reference culture medium as control was prepared by adding inducers of TNF-α (mfd. by genzyme), IL-1β (mfd. by genzyme) and IFN-γ (mfd. by genzyme) to the culture medium, so as to induce the formation of IL-8.
# On the other hand, the test culture medium, containing the test compound of Example 1 was prepared similarly as in the reference culture medium, except adding the test compound (1×10^-5, 1×10^-6 and 1×10^-7 M) dissolved in dimethyl sulfoxide (DMSO) at the same time of inducers-addition.
# The concentration of IL-8 formed in the supernatant of each one of the culture media after 24-hour incubation was measured by IL-8 ELISA Kit Human (mfd. by genzyme). Further, MTT assay was conducted by the similar method as described in Text Example 2 to determine the index of toxicity for cells.
# contact hypersensitivity = experiment: Contact hypersensitivity model in mouse (atopic dermatitis model); assay type: in vivo; conditions: po, 2 mg/Kg p.o., 30 minutes before causal induction, 24 hours, read-out: Control % (intumescence of the pinna, untreated = 100)
# Procedure: [Contact hypersensitivity model in mouse (Atopic dermatisis model)]
# Test was conducted by referring to the method as described in "HIFU (a Japanese journal of dermatology)" Vol. 35, Supplemental Issue No. 15, pp. 96-106, published on March 1993.
# CBA/J strain mice of 6-8 week age were used as the test animals (6-8 mice in one group). The mouse was sensitized by coating 150 μl of 5% of picryl chloride [dissolved in a mixture of acetone with olive oil (1:4)] on the shaved portion of skin in the back of mouse. […] 24 Hours after the causal induction, the effect for inhibiting contact hypersensitivity performed by the test compounds were evaluated by referring to the action for inhibiting intumescence of the pinna as an indication. The test compound was orally administered 30 minutes before the causal induction.
# The following compounds were used for the test.
# 1) Compounds of the Present Invention:
# (Dosage: 20 mg/Kg p.o., which is 7-10 times larger amount of dosages for compounds of the present invention)
# The value obtained from the sensitization test without administration of the test compound was referred to as 100, and by comparing with the values obtained from the sensitization test with administration of the test compound was referred to "% control" values.
structure (smiles),measurement,setting,value
"COCc1cc(=O)n2ncc(-c3ccc(Sc4ccccc4)cc3)c2[nH]1 [Example 1, 4,7-dihydro-5-methoxymethyl-7-oxo-3-(4-phenylthiophenyl)pyrazolo[1,5-a]pyrimidine]",activity at 1 µM,[1],56%
same,activity at 10 µM,[2]; 1 × 10^-5 M,13.4%
same,activity at 1 µM,[2]; 1 × 10^-6 M,52.6%
same,activity at 0.1 µM,[2]; 1 × 10^-7 M,64.5%
same,response vs control in vivo at 2 mg/kg,contact hypersensitivity,53.7%
